Patent US20100145266A1, “METHOD FOR LOADING STRUCTURED SURFACES” (priority 2007, published 2010)

Legend:
physchem = experiment: physchem
Protocol: Preferably 1 mg-150 mg, more preferably 10 mg to 90 mg and most preferably 40 mg to 60 mg of paclitaxel are dissolved in one ml of DMSO.

[1] = Stability of paclitaxel depending on pH; type: physicochemical

CC(=O)O[C@H]1C(=O)[C@@]2(C)[C@H]([C@H](OC(=O)c3ccccc3)[C@]3(O)C[C@H](OC(=O)[C@H](O)[C@@H](NC(=O)c4ccccc4)c4ccccc4)C(C)=C1C3(C)C)[C@]1(OC(C)=O)CO[C@@H]1C[C@@H]2O (relative stereo) [paclitaxel, [2aR-[2a,4,4a,6,9(R*,S*),11,12,12a,12b]]-(benzoylamino)-hydroxybenzene propionic acid 6,12b-bis-(acetyloxy)-12-(benzoyloxy)-2a-3,4,4a,5,6,9,10,11,12,12a,12b-dodecahydro-4,11-dihydroxy-4a,8,13,13-tetramethyl-5-oxo-7,11-methano-1H-cyclodeca[3,4]benz[1,2-b]oxet-9-yl ester)]
solubility in anhydrous ethanol (physchem): highly soluble
solubility in dimethyl sulfoxide (DMSO) (physchem): highly soluble
solubility in methanol (physchem): highly soluble
solubility (physchem; organic solvent or mixture): ≤ 150 mg/mL
stability at alkaline pH ([1]; alkaline pH): comparatively instable
stability at a pH between 3 and 5 ([1]; pH between 3 and 5): especially stable
